Assay results taken from patent US20070281046A1, “Method for removing organic contaminants from Chinese herb medicines” (Committee on Chinese Medicine and Pharmacy, Department of …, priority 2006, published 2007).

Assay: PCNB concentration after gamma irradiation in samples of P. quinquefolium and in methanol solution
Type: physicochemical
Settings: for concentration of the remaining PCNB / concentration of the remaining PCNB as compared to before treatment: 2 ppm PCNB in methanol solution
[1] = P. quinquefolium samples containing 2 ppm PCNB, 20 kGy

SMILES: O=[N+]([O-])c1c(Cl)c(Cl)c(Cl)c(Cl)c1Cl [PCNB, pentachloronitrobenzene]
- concentration of the remaining PCNB (20 kGy): 0.056 ppm
- concentration of the remaining PCNB as compared to before treatment (20 kGy): 2.79%
- concentration of the remaining PCNB (25 kGy): 0.008 ppm
- concentration of the remaining PCNB as compared to before treatment (25 kGy): 0.86%
- PCNB concentration as % of the original concentration [1]: 4.01%
- PCNB concentration remaining [1]: 0.08 ppm
